Source: patent US7812035B2, “4-substituted piperidines, and methods of use thereof” (Sepracor Inc., priority 2001, dated 2010)
Like-named read-outs stand apart in the source and are kept apart here.

Key:
Format in all cases: cell-based
dopamine transporter = assay: DA uptake inhibition (monoamine transporter antagonism, methods of Gu et al); conditions: 1 μM compound
serotonin transporter = serotonin transporter (UniProt P31645); assay: 5-HT uptake inhibition (monoamine transporter antagonism, methods of Gu et al); conditions: 1 μM compound
[1] = biological target: norepinephrine transporter (Homo sapiens, UniProt P23975); assay: NE uptake inhibition (monoamine transporter antagonism, methods of Galli et al); conditions: read-out: NE uptake (% inhibition @1 μM)
Chain of norepinephrine transporter (P23975 whole entry): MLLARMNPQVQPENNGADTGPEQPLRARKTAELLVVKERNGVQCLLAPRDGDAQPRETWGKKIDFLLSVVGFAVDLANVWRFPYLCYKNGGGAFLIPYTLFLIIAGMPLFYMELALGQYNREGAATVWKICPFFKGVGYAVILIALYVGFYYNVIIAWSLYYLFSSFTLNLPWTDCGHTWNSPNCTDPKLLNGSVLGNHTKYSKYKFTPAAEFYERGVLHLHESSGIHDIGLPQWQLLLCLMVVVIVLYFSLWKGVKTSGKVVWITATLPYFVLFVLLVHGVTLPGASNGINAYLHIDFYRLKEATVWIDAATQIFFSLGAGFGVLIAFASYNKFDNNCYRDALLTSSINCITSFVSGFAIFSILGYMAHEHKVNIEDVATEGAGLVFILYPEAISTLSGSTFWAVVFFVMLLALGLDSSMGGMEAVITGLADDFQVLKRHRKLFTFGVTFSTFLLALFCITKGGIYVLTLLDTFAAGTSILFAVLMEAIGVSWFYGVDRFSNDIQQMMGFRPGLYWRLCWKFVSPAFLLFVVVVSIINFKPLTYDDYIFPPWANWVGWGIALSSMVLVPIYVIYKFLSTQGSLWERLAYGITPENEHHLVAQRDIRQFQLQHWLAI

SMILES | DA uptake (% inhibition @1 μM) (dopamine transporter) [%] | 5-HT uptake (% inhibition @1 μM) (serotonin transporter) [%] | inhibition at 1 µM [1] [%] | inhibition at 1 µM ([1]; 1 μM compound) [%]
OC1CCN(CC2(c3ccc(Cl)cc3)CCC2)CC1 [Compound 2, 1-[1-(4-Chloro-phenyl)-cyclobutylmethyl]-piperidin-4-ol] | 88 | 36 | 65 | 
FC(F)(F)c1cc(COC2CCN(CC3(c4ccc(Cl)cc4)CCC3)CC2)cc(C(F)(F)F)c1 [Compound 5] | 61 | 14 |  | 85
FC(F)(F)c1ccc(COC2CCN(CC3(c4ccc(Cl)cc4)CCC3)CC2)cc1 [Compound 6, [1-(4-chloro-phenyl)-cyclobutylmethyl]-4-(4-trifluoromethyl-benzyloxy)-piperidine] | 85 | 9 | 78 | 
FC(F)(F)c1ccc(OC2CCN(CC3(c4ccc(Cl)cc4)CCC3)CC2)cc1 [Compound 8, 1-[1-(4-chloro-phenyl)-cyclobutylmethyl]-4-(4-trifluoromethal-phenoxy)-piperidine] | 25 | 56 | 38 | 
OCC1CCN(CC2(c3ccc(Cl)cc3)CCC2)CC1 [Compound 10, {1-[1-(4-chloro-phenyl)-cyclobuylmethyl]-piperidin-4-yl}-methanol] | 70 | 21 | 62 | 
FC(F)(F)c1ccc(COCC2CCN(CC3(c4ccc(Cl)cc4)CCC3)CC2)cc1 [Compound 11] | 97 | 87 |  | 97
FC(F)(F)c1ccc(OCC2CCN(CC3(c4ccc(Cl)cc4)CCC3)CC2)cc1 [Compound 13, 1-[1-(4-Chloro-Phenyl)-Cyclobutylmethyl]-4-(4-Trifluoromethyl-Phenoxymethyl)-Piperidine] | 94 | 83 | 97 | 
